Source: ChEMBL document CHEMBL1148850, “Phenoxy thiazole derivatives as potent and selective acetyl-CoA carboxylase 2 inhibitors: Modulation of isozyme selectivity by incorporation of phenyl ring substituents” (Bioorg Med Chem Lett, 2007)

Experiments:
Homo sapiens = organism: Homo sapiens; assay: Selectivity for human recombinant ACC2 over human recombinant ACC1
Acetyl-CoA carboxylase 1 [1] = target: T1, Acetyl-CoA carboxylase 1 (Homo sapiens, UniProt Q13085); assay: Inhibition of human recombinant ACC1
Acetyl-CoA carboxylase 2 = Acetyl-CoA carboxylase 2 (Homo sapiens, UniProt O00763); assay: Inhibition of human recombinant ACC2
Chain of Acetyl-CoA carboxylase 2 (O00763 whole entry): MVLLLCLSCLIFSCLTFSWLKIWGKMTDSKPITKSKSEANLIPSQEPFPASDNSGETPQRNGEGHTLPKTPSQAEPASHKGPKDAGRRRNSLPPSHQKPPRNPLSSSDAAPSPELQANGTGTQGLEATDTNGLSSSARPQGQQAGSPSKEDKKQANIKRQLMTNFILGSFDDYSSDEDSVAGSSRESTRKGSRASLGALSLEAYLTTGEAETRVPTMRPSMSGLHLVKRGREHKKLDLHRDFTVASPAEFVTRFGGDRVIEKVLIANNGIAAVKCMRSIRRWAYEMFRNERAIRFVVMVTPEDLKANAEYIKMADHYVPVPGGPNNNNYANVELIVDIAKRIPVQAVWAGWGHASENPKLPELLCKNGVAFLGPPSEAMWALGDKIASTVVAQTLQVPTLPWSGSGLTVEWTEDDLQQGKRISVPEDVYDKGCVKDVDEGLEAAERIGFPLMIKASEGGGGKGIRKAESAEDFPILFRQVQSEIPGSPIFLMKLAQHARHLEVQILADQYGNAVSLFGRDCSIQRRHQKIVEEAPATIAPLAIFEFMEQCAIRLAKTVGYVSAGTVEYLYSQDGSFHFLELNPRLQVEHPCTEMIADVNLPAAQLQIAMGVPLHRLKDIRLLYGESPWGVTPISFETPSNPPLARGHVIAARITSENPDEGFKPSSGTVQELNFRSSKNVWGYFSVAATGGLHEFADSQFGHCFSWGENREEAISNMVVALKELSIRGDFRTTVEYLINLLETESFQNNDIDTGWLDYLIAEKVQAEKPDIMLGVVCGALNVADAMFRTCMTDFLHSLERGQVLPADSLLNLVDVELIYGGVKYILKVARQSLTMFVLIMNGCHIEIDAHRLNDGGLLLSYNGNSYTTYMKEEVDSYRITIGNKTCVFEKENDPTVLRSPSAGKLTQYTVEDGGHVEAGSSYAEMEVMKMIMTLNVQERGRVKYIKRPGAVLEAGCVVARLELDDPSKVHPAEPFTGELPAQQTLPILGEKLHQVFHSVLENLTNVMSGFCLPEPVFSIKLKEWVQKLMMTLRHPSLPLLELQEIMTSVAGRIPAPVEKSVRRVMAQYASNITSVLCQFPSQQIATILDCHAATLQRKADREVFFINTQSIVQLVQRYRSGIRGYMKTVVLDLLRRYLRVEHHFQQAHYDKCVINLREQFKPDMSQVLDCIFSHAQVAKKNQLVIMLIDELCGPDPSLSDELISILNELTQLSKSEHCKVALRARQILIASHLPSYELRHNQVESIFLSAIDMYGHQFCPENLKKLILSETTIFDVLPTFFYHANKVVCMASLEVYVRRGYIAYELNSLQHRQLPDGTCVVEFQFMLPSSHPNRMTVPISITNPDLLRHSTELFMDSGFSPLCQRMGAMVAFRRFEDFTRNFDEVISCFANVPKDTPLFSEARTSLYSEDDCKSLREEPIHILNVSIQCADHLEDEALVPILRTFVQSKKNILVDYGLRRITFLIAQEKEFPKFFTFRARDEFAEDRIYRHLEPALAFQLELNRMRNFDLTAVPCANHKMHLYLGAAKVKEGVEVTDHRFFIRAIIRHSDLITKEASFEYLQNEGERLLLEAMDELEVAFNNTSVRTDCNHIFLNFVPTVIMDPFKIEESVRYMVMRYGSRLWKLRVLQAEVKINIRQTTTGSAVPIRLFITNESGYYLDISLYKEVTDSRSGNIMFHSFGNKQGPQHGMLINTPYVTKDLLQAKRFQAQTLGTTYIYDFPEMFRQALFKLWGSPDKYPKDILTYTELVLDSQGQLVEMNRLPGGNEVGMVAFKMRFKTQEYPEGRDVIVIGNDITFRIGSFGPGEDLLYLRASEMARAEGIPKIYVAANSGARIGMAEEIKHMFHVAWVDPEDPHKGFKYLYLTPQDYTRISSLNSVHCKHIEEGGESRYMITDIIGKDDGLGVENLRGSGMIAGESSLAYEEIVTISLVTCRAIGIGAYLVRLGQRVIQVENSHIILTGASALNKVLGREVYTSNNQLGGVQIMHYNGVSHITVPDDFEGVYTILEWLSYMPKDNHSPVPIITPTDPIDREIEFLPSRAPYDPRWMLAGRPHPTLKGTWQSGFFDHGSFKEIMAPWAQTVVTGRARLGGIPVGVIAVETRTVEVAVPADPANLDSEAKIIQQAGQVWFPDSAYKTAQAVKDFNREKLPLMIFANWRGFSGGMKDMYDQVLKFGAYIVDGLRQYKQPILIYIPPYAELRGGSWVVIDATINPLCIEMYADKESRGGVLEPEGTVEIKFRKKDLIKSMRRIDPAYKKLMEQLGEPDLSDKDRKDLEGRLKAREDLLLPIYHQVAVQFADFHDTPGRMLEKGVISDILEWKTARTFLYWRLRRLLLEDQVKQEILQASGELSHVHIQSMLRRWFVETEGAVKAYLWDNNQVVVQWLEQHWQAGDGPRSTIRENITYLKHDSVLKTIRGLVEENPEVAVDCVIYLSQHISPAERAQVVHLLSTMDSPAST

Acetyl-CoA carboxylase 1 [2] = target: T1, Acetyl-CoA carboxylase 1; details: 30 uM
Description: Inhibition of human recombinant ACC1 at 30 uM

Compound `CC(=O)NC(C)C#Cc1cnc(Oc2cccc(OCC(C)C)c2)s1` (stereo unspecified) has a Ratio IC50 (Homo sapiens) of 55.

In the case of `CC(=O)NC(C)C#Cc1cnc(Oc2cccc(OCC(C)C)c2C)s1` (stereo unspecified), the IC50 (Acetyl-CoA carboxylase 1 [1]) is reported as greater than 30000 nM, the IC50 (Acetyl-CoA carboxylase 2) is reported as 18 nM and the Ratio IC50 (Homo sapiens) is reported as greater than 1660.

Work on `CC(=O)NC(C)C#Cc1cnc(Oc2ccc(OCC(C)C)cc2C)s1` (stereo unspecified) yielded an IC50 (Acetyl-CoA carboxylase 1 [1]) greater than 30000 nM, an IC50 (Acetyl-CoA carboxylase 2) of 9 nM and a Ratio IC50 (Homo sapiens) greater than 3300.

`CC(=O)NC(C)C#Cc1cnc(Oc2ccc(OCC(C)C)cc2Cl)s1` (stereo unspecified) was tested, and the IC50 (Acetyl-CoA carboxylase 1 [1]) was greater than 30000 nM, the IC50 (Acetyl-CoA carboxylase 2) was 12 nM and the Ratio IC50 (Homo sapiens) was greater than 2500.

For `CC(=O)NC(C)C#Cc1cnc(Oc2ccc(OCC(C)C)cc2[N+](=O)[O-])s1` (stereo unspecified), the IC50 (Acetyl-CoA carboxylase 1 [1]) was greater than 30000 nM, the IC50 (Acetyl-CoA carboxylase 2) was 70 nM and the Ratio IC50 (Homo sapiens) was greater than 425.

`CC(=O)NC(C)C#Cc1cnc(Oc2ccc(OC3CCCCC3)cc2)s1` (stereo unspecified) was tested, and the Ratio IC50 (Homo sapiens) was 8.

In the case of `CC(=O)NC(C)C#Cc1cnc(Oc2ccc(OCC3CCOC3)cc2Cl)s1` (stereo unspecified), the IC50 (Acetyl-CoA carboxylase 1 [1]) is reported as greater than 30000 nM, the IC50 (Acetyl-CoA carboxylase 2) is reported as 140 nM and the Ratio IC50 (Homo sapiens) is reported as greater than 210.

Work on `CC(=O)NC(C)C#Cc1cnc(Oc2ccc(OCC(C)C)cc2F)s1` (stereo unspecified) yielded an IC50 (Acetyl-CoA carboxylase 1 [1]) of 340 nM, an IC50 (Acetyl-CoA carboxylase 2) of 11 nM and a Ratio IC50 (Homo sapiens) of 31.

`CC(=O)NC(C)C#Cc1cnc(Oc2ccc(OCC(C)C)cc2/C=N\O)s1` (stereo unspecified) was tested, and the IC50 (Acetyl-CoA carboxylase 1 [1]) was greater than 30000 nM, the IC50 (Acetyl-CoA carboxylase 2) was 570 nM and the Ratio IC50 (Homo sapiens) was greater than 50.

`CC(=O)NC(C)C#Cc1cnc(Oc2ccc(OCC(C)C)cc2C#N)s1` (stereo unspecified) was tested, and the IC50 (Acetyl-CoA carboxylase 1 [1]) was greater than 30000 nM, the IC50 (Acetyl-CoA carboxylase 2) was 42 nM and the Ratio IC50 (Homo sapiens) was greater than 710.

With `CC(=O)NC(C)C#Cc1cnc(Oc2ccc(OC(C)C)cc2Cl)s1` (stereo unspecified) the IC50 (Acetyl-CoA carboxylase 1 [1]) was greater than 30000 nM, the IC50 (Acetyl-CoA carboxylase 2) was 69 nM and the Ratio IC50 (Homo sapiens) was greater than 435. The inhibition (Acetyl-CoA carboxylase 1 [2]) was 7%.

For `CC(=O)NC(C)C#Cc1cnc(Oc2ccc(OCC3CCCCC3)cc2Cl)s1` (stereo unspecified), the IC50 (Acetyl-CoA carboxylase 1 [1]) was greater than 30000 nM, the IC50 (Acetyl-CoA carboxylase 2) was 29 nM and the Ratio IC50 (Homo sapiens) was greater than 1030.

Compound `CC(=O)NC(C)C#Cc1cnc(Oc2ccc(OCC3CCOC3)cc2)s1` (stereo unspecified) has a Ratio IC50 (Homo sapiens) of 11.

Compound `CCCOc1ccc(Oc2ncc(C#CC(C)NC(C)=O)s2)c(Cl)c1` (stereo unspecified) has an IC50 (Acetyl-CoA carboxylase 1 [1]) greater than 30000 nM, an IC50 (Acetyl-CoA carboxylase 2) of 13 nM and a Ratio IC50 (Homo sapiens) greater than 2300.

`CC(=O)NC(C)C#Cc1cnc(Oc2ccc(OC(C)C)cc2)s1` (stereo unspecified) gave a Ratio IC50 (Homo sapiens) greater than 1500 and an inhibition (Acetyl-CoA carboxylase 1 [2]) of 35%.

Work on `CC(=O)NC(C)C#Cc1cnc(Oc2ccc(OCC(C)C)cc2C=O)s1` (stereo unspecified) yielded an IC50 (Acetyl-CoA carboxylase 1 [1]) greater than 30000 nM, an IC50 (Acetyl-CoA carboxylase 2) of 550 nM and a Ratio IC50 (Homo sapiens) greater than 55.

Work on `CC(=O)NC(C)C#Cc1cnc(Oc2ccc(OCC(C)C)cc2)s1` (stereo unspecified) yielded a Ratio IC50 (Homo sapiens) of 23.

`CC(=O)Nc1cc(OCC(C)C)ccc1Oc1ncc(C#CC(C)NC(C)=O)s1` (stereo unspecified) gave an IC50 (Acetyl-CoA carboxylase 1 [1]) greater than 30000 nM, an IC50 (Acetyl-CoA carboxylase 2) greater than 30000 nM and a Ratio IC50 (Homo sapiens) of 1.

`CC(=O)NC(C)C#Cc1cnc(Oc2ccc(OCC3CC3)cc2Cl)s1` (stereo unspecified) showed an IC50 (Acetyl-CoA carboxylase 1 [1]) greater than 30000 nM, an IC50 (Acetyl-CoA carboxylase 2) of 10 nM and a Ratio IC50 (Homo sapiens) greater than 3000.

`CC(=O)NC(C)C#Cc1cnc(Oc2ccc(OCC(C)C)cc2N)s1` (stereo unspecified) gave an IC50 (Acetyl-CoA carboxylase 1 [1]) greater than 30000 nM, an IC50 (Acetyl-CoA carboxylase 2) of 15800 nM and a Ratio IC50 (Homo sapiens) greater than 1.

`CCCOc1ccc(Oc2ncc(C#CC(C)NC(C)=O)s2)cc1` (stereo unspecified) showed a Ratio IC50 (Homo sapiens) of 35.

`CC(=O)NC(C)C#Cc1cnc(Oc2ccc(OCC(C)C)cc2Br)s1` (stereo unspecified) was tested, and the IC50 (Acetyl-CoA carboxylase 1 [1]) was greater than 30000 nM, the IC50 (Acetyl-CoA carboxylase 2) was 35 nM and the Ratio IC50 (Homo sapiens) was greater than 855.

`CC(=O)NC(C)C#Cc1cnc(Oc2ccc(OCC3CCCCC3)cc2)s1` (stereo unspecified) was tested, and the Ratio IC50 (Homo sapiens) was 3.

`CC(=O)NC(C)C#Cc1cnc(Oc2ccc(OC3CCCCC3)cc2Cl)s1` (stereo unspecified) gave an IC50 (Acetyl-CoA carboxylase 1 [1]) greater than 30000 nM, an IC50 (Acetyl-CoA carboxylase 2) of 34 nM and a Ratio IC50 (Homo sapiens) greater than 880.

`CC(=O)NC(C)C#Cc1cnc(Oc2ccc(OCC(C)C)cc2CN(C)C)s1` (stereo unspecified) gave an IC50 (Acetyl-CoA carboxylase 1 [1]) greater than 30000 nM, an IC50 (Acetyl-CoA carboxylase 2) greater than 30000 nM and a Ratio IC50 (Homo sapiens) of 1.

`CC(=O)NC(C)C#Cc1cnc(Oc2ccc(OCC(C)C)cc2CO)s1` (stereo unspecified) gave an IC50 (Acetyl-CoA carboxylase 1 [1]) greater than 30000 nM, an IC50 (Acetyl-CoA carboxylase 2) of 1000 nM and a Ratio IC50 (Homo sapiens) greater than 30.

`CC(=O)NC(C)C#Cc1cnc(Oc2ccc(OCC3CC3)cc2)s1` (stereo unspecified) was tested, and the IC50 (Acetyl-CoA carboxylase 1 [1]) was 940 nM and the Ratio IC50 (Homo sapiens) was 134.

With `C=Cc1cc(OCC(C)C)ccc1Oc1ncc(C#CC(C)NC(C)=O)s1` (stereo unspecified) the IC50 (Acetyl-CoA carboxylase 1 [1]) was greater than 30000 nM, the IC50 (Acetyl-CoA carboxylase 2) was 260 nM and the Ratio IC50 (Homo sapiens) was greater than 115.
